# Source: patent US11254663B2 (BRISTOL-MYERS SQUIBB COMPANY, priority 2019, dated 2022)
# Target: FXR (Homo sapiens (Human), UniProt Q96RI1)
# Assay: FXR EC50 (FXR agonist potency reported with each Example)
# Type: cell-based
# FXR, sequence (Q96RI1 262-486): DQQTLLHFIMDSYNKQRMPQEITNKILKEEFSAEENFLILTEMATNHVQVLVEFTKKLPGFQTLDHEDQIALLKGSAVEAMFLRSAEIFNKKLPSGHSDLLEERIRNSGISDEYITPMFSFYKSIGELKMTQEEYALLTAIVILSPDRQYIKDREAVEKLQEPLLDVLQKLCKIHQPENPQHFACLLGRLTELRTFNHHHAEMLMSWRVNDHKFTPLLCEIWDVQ
row,EC50 [nM],Structure (SMILES)
1,269,"CC(N(C(=O)C12CC(F)(C1)C2)c1cccc(-c2cnc(C3CC3)o2)c1)C12CCC(c3nc(C4CC4)no3)(CC1)CC2 (single isomer, unassigned) [Example 215, N-(1-(4-(3-cyclopropyl-1,2,4-oxadiazol-5-yl)bicyclo[2.2.2]octan-1-yl)ethyl)-N-(3-(2-cyclopropyloxazol-5-yl)phenyl)-3-fluorobicyclo[1.1.1]pentane-1-carboxamide]"
2,73,"CS(=O)(=O)n1cc(-c2cccc(N(CC34CCC(c5nc(C6CC6)no5)(CC3)CC4)C(=O)C34CC(F)(C3)C4)c2)cn1 [Example 159, N-((4-(3-cyclopropyl-1,2,4-oxadiazol-5-yl)bicyclo[2.2.2]octan-1-yl)methyl)-3-fluoro-N-(3-(1-(methylsulfonyl)-1H-pyrazol-4-yl)phenyl)bicyclo[1.1.1]pentane-1-carboxamide]"
3,43,"O=C(N(CC12CCC(c3nc(C4CC4)no3)(CC1)CC2)c1cccc(-c2cnn(S(=O)(=O)C3CC3)c2)c1)C12CC(F)(C1)C2 [Example 158, N-((4-(3-cyclopropyl-1,2,4-oxadiazol-5-yl)bicyclo[2.2.2]octan-1-yl)methyl)-N-(3-(1-(cyclopropylsulfonyl)-1H-pyrazol-4-yl)phenyl)-3-fluorobicyclo[1.1.1]pentane-1-carboxamide]"
4,89,"Cn1nc(-c2cccc(N(CC34CCC(c5noc(C(C)(C)C)n5)(CC3)CC4)C(=O)C34CC(F)(C3)C4)c2)cc1C(C)(C)C [Example 214, N-((4-(5-(tert-butyl)-1,2,4-oxadiazol-3-yl)bicyclo[2.2.2]octan-1-yl)methyl)-N-(3-(5-(tert-butyl)-1-methyl-1H-pyrazol-3-yl)phenyl)-3-fluorobicyclo[1.1.1]pentane-1-carboxamide]"
5,377,"COc1cc(-c2cccc(N(CC34CCC(c5nc(C6CCOCC6)no5)(CC3)CC4)C(=O)C34CC(F)(C3)C4)c2)ccn1 [Example 227, 3-Fluoro-N-(3-(2-methoxypyridin-4-yl)phenyl)-N-((4-(3-(tetrahydro-2H-pyran-4-yl)-1,2,4-oxadiazol-5-yl)bicyclo[2.2.2]octan-1-yl)methyl)bicyclo[1.1.1]pentane-1-carboxamide]"
6,585,"Cn1cc(-c2cccc(N(CC34CCC(c5nc(C6CC6)no5)(CC3)CC4)C(=O)C34CC(F)(C3)C4)c2)nc1C1CC1 [Example 130, N-((4-(3-cyclopropyl-1,2,4-oxadiazol-5-yl)bicyclo[2.2.2]octan-1-yl)methyl)-N-(3-(2-cyclopropyl-1-methyl-1H-imidazol-4-yl)phenyl)-3-fluorobicyclo[1.1.1]pentane-1-carboxamide]"
7,198,"Cn1nc(C(C)(C)C)cc1-c1cccc(N(CC23CCC(c4noc(C(C)(C)C)n4)(CC2)CC3)C(=O)C23CC(F)(C2)C3)c1 [Example 213, N-((4-(5-(tert-butyl)-1,2,4-oxadiazol-3-yl)bicyclo[2.2.2]octan-1-yl)methyl)-N-(3-(3-(tert-butyl)-1-methyl-1H-pyrazol-5-yl)phenyl)-3-fluorobicyclo[1.1.1]pentane-1-carboxamide]"
8,98.4,"O=C(N(CC12CCC(c3nc(C4CC4)no3)(CC1)CC2)c1cccc(-n2cc(C3CC3)nn2)c1)C12CC(F)(C1)C2 [Example 219, N-((4-(3-cyclopropyl-1,2,4-oxadiazol-5-yl)bicyclo[2.2.2]octan-1-yl)methyl)-N-(3-(4-cyclopropyl-1H-1,2,3-triazol-1-yl)phenyl)-3-fluorobicyclo[1.1.1]pentane-1-carboxamide]"
9,285,"COc1cc(-c2cccc(N(CC34CCC(c5ccc(C(C)(C)C#N)cc5)(CC3)OC4)C(=O)C34CC(F)(C3)C4)c2)ccn1 [Example 222, N-((1-(4-(2-cyanopropan-2-yl)phenyl)-2-oxabicyclo[2.2.2]octan-4-yl)methyl)-3-fluoro-N-(3-(2-methoxypyridin-4-yl)phenyl)bicyclo[1.1.1]pentane-1-carboxamide]"

# Further lines, the compound ahead of its results:
row,Structure (SMILES),EC50 [nM]
1,"Cc1cc(C23CCC(CN(C(=O)C45CC(F)(C4)C5)c4cccc(-c5nc(C6CC6)no5)c4)(CC2)CC3)ccn1 [Example 32, N-(3-(3-cyclopropyl-1,2,4-oxadiazol-5-yl)phenyl)-3-fluoro-N-((4-(2-methylpyridin-4-yl)bicyclo[2.2.2]octan-1-yl)methyl)bicyclo[1.1.1]pentane-1-carboxamide]",756
2,"CCNC(=O)N(CC12CCC(c3nc(C4CC4)no3)(CC1)CC2)c1cccc(-c2nc(C3CC3)no2)c1 [Example 95, 1-((4-(3-cyclopropyl-1,2,4-oxadiazol-5-yl)bicyclo[2.2.2]octan-1-yl)methyl)-1-(3-(3-cyclopropyl-1,2,4-oxadiazol-5-yl)phenyl)-3-ethylurea]",590
3,"CC(C)(C)c1nc(C23CCC(CN(C(=O)C45CC(F)(C4)C5)c4cccc(-c5nc(C6CC6)no5)c4)(CC2)CC3)no1 [Example 119, N-((4-(5-(tert-butyl)-1,2,4-oxadiazol-3-yl)bicyclo[2.2.2]octan-1-yl)methyl)-N-(3-(3-cyclopropyl-1,2,4-oxadiazol-5-yl)phenyl)-3-fluorobicyclo[1.1.1]pentane-1-carboxamide]",15
4,"CC(C)c1nc(-c2cccc(N(CC34CCC(c5cc(C6CC6)n(C)n5)(CC3)CC4)C(=O)C34CC(F)(C3)C4)c2)no1 [Example 169, N-((4-(5-cyclopropyl-1-methyl-1H-pyrazol-3-yl)bicyclo[2.2.2]octan-1-yl)methyl)-3-fluoro-N-(3-(5-isopropyl-1,2,4-oxadiazol-3-yl)phenyl)bicyclo[1.1.1]pentane-1-carboxamide]",98
5,"Cc1cnc(C23CCC(CN(C(=O)C45CC(F)(C4)C5)c4cccc(-c5nc(C6CC6)no5)c4)(CC2)CC3)o1 [Example 37, N-(3-(3-cyclopropyl-1,2,4-oxadiazol-5-yl)phenyl)-3-fluoro-N-((4-(5-methyloxazol-2-yl)bicyclo[2.2.2]octan-1-yl)methyl)bicyclo[1.1.1]pentane-1-carboxamide]",82
6,"O=C(C1CCC(F)(F)C1)N(CC12CCC(c3nc(CC4CC4)no3)(CC1)CC2)c1cccc(-c2nc(C3CC3)no2)c1 (stereo not shown) [Example 69, N-(3-(3-cyclopropyl-1,2,4-oxadiazol-5-yl)phenyl)-N-((4-(3-(cyclopropylmethyl)-1,2,4-oxadiazol-5-yl)bicyclo[2.2.2]octan-1-yl)methyl)-3,3-difluorocyclopentane-1-carboxamide]",474
7,"O=C(C1CC(F)(F)C1)N(CC12CCC(c3nc(C4CC4)no3)(CC1)CC2)c1cccc(-c2cc(C3CC3)on2)c1 [Example 60, N-((4-(3-cyclopropyl-1,2,4-oxadiazol-5-yl)bicyclo[2.2.2]octan-1-yl)methyl)-N-(3-(5-cyclopropylisoxazol-3-yl)phenyl)-3,3-difluorocyclobutane-1-carboxamide]",230
8,"CC(F)(F)c1nc(C23CCC(CN(C(=O)C45CC(F)(C4)C5)c4cccc(-c5nc(C6CC6)no5)c4)(CC2)CC3)no1 [Example 121, N-(3-(3-cyclopropyl-1,2,4-oxadiazol-5-yl)phenyl)-N-((4-(5-(1,1-difluoroethyl)-1,2,4-oxadiazol-3-yl)bicyclo[2.2.2]octan-1-yl)methyl)-3-fluorobicyclo[1.1.1]pentane-1-carboxamide]",22
9,"O=C(C1CCC(F)(F)C1)N(CC12CCC(c3nc(C4CC4)no3)(CC1)CC2)c1cccc(-c2nc(C(F)F)co2)c1 (stereo not shown) [Example 44, N-((4-(3-cyclopropyl-1,2,4-oxadiazol-5-yl)bicyclo[2.2.2]octan-1-yl)methyl)-N-(3-(4-(difluoromethyl)oxazol-2-yl)phenyl)-3,3-difluorocyclopentane-1-carboxamide]",646
10,"O=C(N(CC12CCC(c3nc(C4CC4)no3)(CC1)CC2)c1cccc(-c2cnn(C3COC3)c2)c1)C12CC(F)(C1)C2 [Example 150, N-((4-(3-cyclopropyl-1,2,4-oxadiazol-5-yl)bicyclo[2.2.2]octan-1-yl)methyl)-3-fluoro-N-(3-(1-(oxetan-3-yl)-1H-pyrazol-4-yl)phenyl)bicyclo[1.1.1]pentane-1-carboxamide]",87
11,"Cn1nc(-c2cccc(N(CC34CCC(c5nc(C6CC6)no5)(CC3)CC4)C(=O)C34CC(F)(C3)C4)c2)cc1C1CC1 [Example 75, N-((4-(3-cyclopropyl-1,2,4-oxadiazol-5-yl)bicyclo[2.2.2]octan-1-yl)methyl)-N-(3-(5-cyclopropyl-1-methyl-1H-pyrazol-3-yl)phenyl)-3-fluorobicyclo[1.1.1]pentane-1-carboxamide]",247
12,"O=C(C1CC(F)(F)C1)N(CC12CCC(c3nc(C4CC4)cs3)(CC1)CC2)c1cccc(-c2nc(C3CC3)no2)c1 [Example 101, N-(3-(3-cyclopropyl-1,2,4-oxadiazol-5-yl)phenyl)-N-((4-(4-cyclopropylthiazol-2-yl)bicyclo[2.2.2]octan-1-yl)methyl)-3,3-difluorocyclobutane-1-carboxamide]",635
13,"COCc1nc(-c2cccc(N(CC34CCC(c5nc(C6CC6)no5)(CC3)CC4)C(=O)C3CCC(F)(F)C3)c2)cs1 (stereo not shown) [Example 74, N-((4-(3-cyclopropyl-1,2,4-oxadiazol-5-yl)bicyclo[2.2.2]octan-1-yl)methyl)-3,3-difluoro-N-(3-(2-(methoxymethyl)thiazol-4-yl)phenyl)cyclopentane-1-carb oxamide]",220
14,"COc1cc(-c2cccc(N(CC34CCC(c5nc(C6CC6)no5)(CC3)CC4)C(=O)C34CC(F)(C3)C4)c2)ccn1 [Example 229, N-((4-(3-cyclopropyl-1,2,4-oxadiazol-5-yl)bicyclo[2.2.2]octan-1-yl)methyl)-3-fluoro-N-(3-(2-methoxypyridin-4-yl)phenyl)bicyclo[1.1.1]pentane-1-carboxamide]",154
15,"CCCc1ncc(-c2cccc(N(CC34CCC(c5nc(C6CC6)no5)(CC3)CC4)C(=O)C3CC(F)(F)C3)c2)o1 [Example 27, N-((4-(3-cyclopropyl-1,2,4-oxadiazol-5-yl)bicyclo[2.2.2]octan-1-yl)methyl)-3,3-difluoro-N-(3-(2-propyloxazol-5-yl)phenyl)cyclobutane-1-carboxamide]",148
16,"Cn1nc(-c2cccc(N(CC34CCC(c5nc(C6CC6)no5)(CC3)CC4)C(=O)C3CC(C(F)F)C3)c2)cc1C1CC1 (stereo not shown) [Example 78, N-((4-(3-cyclopropyl-1,2,4-oxadiazol-5-yl)bicyclo[2.2.2]octan-1-yl)methyl)-N-(3-(5-cyclopropyl-1-methyl-1H-pyrazol-3-yl)phenyl)-3-(difluoromethyl)cyclobutane-1-carboxamide]",607
